In US20100311677A1, “Active Ingredient Combinations Having Insecticidal and Acaricidal Properties” (Bayer CropScience AG, priority 2007, published 2010):
Like-named read-outs stand apart in the source and are kept apart here.

Assays:
Myzus persicae = Myzus persicae test (Example C), sprayed cabbage leaves; type: in vivo; details: for pest or weed control at 0.032 g/ha / pest or weed control at 0.16 g/ha / pest or weed control at 0.8 g/ha / pest or weed control at 4 g/ha: Myzus persicae, 144 h, read-out: Kill in % after 6d
Phaedon cochleariae = Phaedon cochleariae larvae test (Example E), sprayed cabbage leaves; details: for pest or weed control at 0.16 g/ha / pest or weed control at 0.8 g/ha / pest or weed control at 100 g/ha / pest or weed control at 4 g/ha / pest or weed control at 20 g/ha: Phaedon cochleariae, in Brassica oleracea, 144 h, read-out: Kill in % after 6d; for Kill in % after 2d: alone
Tetranychus urticae = Tetranychus urticae test (OP-resistant/spray treatment) (Example G), bean leaf disks; type: in vivo; details: for pest or weed control at 20 g/ha / pest or weed control at 4 g/ha / pest or weed control at 100 g/ha / pest or weed control at 0.8 g/ha: Tetranychus urticae, foliar, 144 h, read-out: Kill in % after 6 d; for Kill in % after 2d: alone
Protocol: Tetranychus urticae Test (OP-Resistant/Spray Treatment)
After the desired period of time, the activity in % is determined.

Spodoptera frugiperda = Spodoptera frugiperda larvae test (Example F), sprayed cabbage leaves; type: in vivo; details: for pest or weed control at 4 g/ha / pest or weed control at 0.8 g/ha: after 6 d
Source text: Spodoptera frugiperda Larvae Test

[1] = active compound alone, 20 g/ha, after 6 d
[2] = Spodoptera frugiperda, 144 h, alone, read-out: Kill in % after 6d
[3] = active compound alone, 4 g/ha, after 6 d
[4] = active compound alone, 0.8 g/ha, after 6 d
[5] = active compound alone, 100 g/ha, after 6 d

CNC(=O)c1cc(C#N)cc(C)c1NC(=O)c1cc(Br)nn1-c1ncccc1Cl [Cyazypyr (57), Cyazypyr]
Kill in % after 1d (Myzus persicae; 4 g/ha, alone): 5% | pest or weed control at 0.16 g/ha (Phaedon cochleariae): 0%

CC(c1ccc(C(F)(F)F)nc1)S(C)(=O)=NC#N (stereo not shown) [II-29-29]
pest or weed control at 20 g/ha (Tetranychus urticae; [1]): 0%

CC1(C)C(/C=C(\Cl)C(F)(F)F)C1C(=O)OC(C#N)c1cccc(Oc2ccccc2)c1 [L-cyhalothrin (12a), lambda-cyhalothrin]
pest or weed control at 4 g/ha (Spodoptera frugiperda; [2]): 50% | pest or weed control at 0.032 g/ha (Myzus persicae; alone, after 6 d): 0% | pest or weed control at 0.16 g/ha (Phaedon cochleariae): 0%

CNC(=O)c1cc(Cl)cc(C)c1NC(=O)c1cc(Br)nn1-c1ncccc1Cl [Rynaxapyr (56), chlorantraniliprole]
pest or weed control at 4 g/ha (Tetranychus urticae; [3]): 0% | pest or weed control at 0.16 g/ha (Myzus persicae; 0.16 g/ha, alone, after 6 d): 0%

COP(=O)(NC(C)=O)SC (stereo not shown) [acephate (112), acephate]
pest or weed control at 100 g/ha (Tetranychus urticae): 0% | pest or weed control at 20 g/ha (Spodoptera frugiperda; Spodoptera frugiperda, 144 h, read-out: Kill in % after 6d): 33% | pest or weed control at 0.8 g/ha (Myzus persicae): 0%

C/C(=N\C#N)N(C)Cc1ccc(Cl)nc1 [acetamiprid (25), acetamiprid]
pest or weed control at 0.8 g/ha (Tetranychus urticae; [4]): 0% | pest or weed control at 0.16 g/ha (Myzus persicae; 0.16 g/ha, alone, after 6 d): 0% | pest or weed control at 0.8 g/ha (Phaedon cochleariae): 0%

CNC(=O)O/N=C/C(C)(C)SC [aldicarb (108), aldicarb]
Kill in % after 1d (Myzus persicae; 4 g/ha, alone): 30%

Cc1ccc(/N=C/N(C)/C=N/c2ccc(C)cc2C)c(C)c1 [amitraz (86), amitraz]
Kill in % after 2d (Tetranychus urticae; 4 g/ha): 0% | pest or weed control at 0.8 g/ha (Myzus persicae; 0.8 g/ha, alone, after 6 d): 0% | pest or weed control at 100 g/ha (Phaedon cochleariae): 0%

CC1(C)C(C=C(Cl)Cl)C1C(=O)OC(C#N)c1ccc(F)c(Oc2ccccc2)c1 (stereo not drawn) [beta-cyfluthrin (3), betacyfluthrin]
pest or weed control at 0.8 g/ha (Tetranychus urticae; [4]): 0% | pest or weed control at 0.16 g/ha (Myzus persicae; 0.16 g/ha, alone, after 6 d): 0% | pest or weed control at 0.8 g/ha (Phaedon cochleariae): 17%

Cc1c(COC(=O)C2C(/C=C(\Cl)C(F)(F)F)C2(C)C)cccc1-c1ccccc1 (stereo not shown) [bifenthrin (18), bifenthrin]
pest or weed control at 0.8 g/ha (Spodoptera frugiperda; [2]): 0%

CCOCn1c(-c2ccc(Cl)cc2)c(C#N)c(Br)c1C(F)(F)F [chlorfenapyr (92), chlorfenapyr]
pest or weed control at 4 g/ha (Tetranychus urticae; [3]): 70% | pest or weed control at 0.8 g/ha (Myzus persicae; 0.8 g/ha, alone, after 6 d): 0%

CN/C(=N\[N+](=O)[O-])NCc1cnc(Cl)s1 [clothianidin (30), clothianidin]
pest or weed control at 0.8 g/ha (Tetranychus urticae; [4]): 0% | pest or weed control at 0.032 g/ha (Myzus persicae; alone, after 6 d): 0%

CN(Cc1ccc(Cl)nc1)C1=CC(=O)OC1 [compound (100)]
pest or weed control at 0.16 g/ha (Myzus persicae; 0.16 g/ha, alone, after 6 d): 0%

O=C1C=C(N(Cc2ccc(Cl)nc2)CC(F)F)CO1 [compound (101)]
pest or weed control at 20 g/ha (Tetranychus urticae; [1]): 0% | pest or weed control at 0.8 g/ha (Myzus persicae; 0.8 g/ha, alone, after 6 d): 50%

Cc1cc(C)c(-n2cnc(C(F)(F)F)n2)cc1SOCC(F)(F)F [compound (106)]
pest or weed control at 4 g/ha (Myzus persicae; 4 g/ha, alone, after 6 d): 0%

Cc1nn(C)c(/C(OC(=O)C(C)(C)C)=C(\C#N)c2ccc(C(C)(C)C)cc2)c1C [cyenopyrafen (71), (1E)-2-cyano-2-[4-(1,1-dimethylethyl)phenyl]-1-(1,3,4-trimethyl-1H-pyrazol-5-yl)ethenyl 2,2-dimethylpropanoate]
pest or weed control at 0.8 g/ha (Myzus persicae; 0.8 g/ha, alone, after 6 d): 0%

COCCOC(=O)C(C#N)(C(=O)c1ccccc1C(F)(F)F)c1ccc(C(C)(C)C)cc1 (stereo not drawn) [cyflumetofen (72), 2-methoxyethyl alpha-cyano-alpha-[4-(1,1-dimethylethyl)phenyl]-beta-oxo-2-(trifluoromethyl)benzenepropanoate]
pest or weed control at 4 g/ha (Tetranychus urticae; [3]): 80% | pest or weed control at 4 g/ha (Myzus persicae; 4 g/ha, alone, after 6 d): 0%

CC1(C)C(C=C(Cl)Cl)C1C(=O)OC(C#N)c1cccc(Oc2ccccc2)c1 (stereo not shown) [cypermethrin (5), cypermethrin]
pest or weed control at 4 g/ha (Tetranychus urticae; [3]): 0% | pest or weed control at 0.8 g/ha (Spodoptera frugiperda; [2]): 17% | pest or weed control at 4 g/ha (Phaedon cochleariae): 67%

Nc1nc(N)nc(NC2CC2)n1 [cyromazine (43), cyromazine]
pest or weed control at 20 g/ha (Tetranychus urticae; [1]): 0% | pest or weed control at 0.8 g/ha (Myzus persicae; 0.8 g/ha, alone, after 6 d): 0% | pest or weed control at 100 g/ha (Phaedon cochleariae): 0%

CC1(C)C(C=C(Br)Br)C1C(=O)OC(C#N)c1cccc(Oc2ccccc2)c1 (stereo not shown) [deltamethrin (6), deltamethrin]
pest or weed control at 0.8 g/ha (Tetranychus urticae; [4]): 0% | Kill in % after 1d (Myzus persicae; 0.16 g/ha, alone): 40% | pest or weed control at 0.8 g/ha (Phaedon cochleariae): 50%

CC(C)c1cc(Oc2ccccc2)cc(C(C)C)c1NC(=S)NC(C)(C)C [diafenthiuron (76), diafenthiuron]
pest or weed control at 0.8 g/ha (Tetranychus urticae; [4]): 30% | pest or weed control at 0.8 g/ha (Myzus persicae; 0.8 g/ha, alone, after 6 d): 0% | pest or weed control at 20 g/ha (Phaedon cochleariae): 0%

CN/C(=N/CC1CCOC1)N[N+](=O)[O-] (stereo not shown) [dinotefuran (29)]
Kill in % after 6d (Tetranychus urticae; [3]): 0%

O=S1OCC2C(CO1)C1(Cl)C(Cl)=C(Cl)C2(Cl)C1(Cl)Cl (stereo not shown) [endosulfan (49), endosulfan]
Kill in % after 2d (Tetranychus urticae; 100 g/ha): 0% | pest or weed control at 4 g/ha (Myzus persicae; 4 g/ha, alone, after 6 d): 0% | pest or weed control at 20 g/ha (Phaedon cochleariae): 33%

CC(C)C(C(=O)OC(C#N)c1cccc(Oc2ccccc2)c1)c1ccc(Cl)cc1 (stereo not shown) [esfenvalerate (7), esfenvalerate]
pest or weed control at 0.8 g/ha (Tetranychus urticae; [4]): 0% | Kill in % after 1d (Myzus persicae; 0.16 g/ha, alone): 0% | pest or weed control at 4 g/ha (Phaedon cochleariae): 83%

CC[S+]([O-])c1c(C#N)nn(-c2c(Cl)cc(C(F)(F)F)cc2Cl)c1N (stereo not shown) [ethiprole (51)]
Kill in % after 6d (Tetranychus urticae; [5]): 0%

Cc1nn(C)c(Oc2ccccc2)c1C=NOCc1ccc(C(=O)OC(C)(C)C)cc1 [fenpyroximate (65), fenpyroximate]
Kill in % after 2d (Tetranychus urticae; 0.8 g/ha): 10% | pest or weed control at 0.8 g/ha (Myzus persicae; 0.8 g/ha, alone, after 6 d): 0%

N#Cc1nn(-c2c(Cl)cc(C(F)(F)F)cc2Cl)c(N)c1[S+]([O-])C(F)(F)F (stereo not shown) [fipronil (50), fipronil]
pest or weed control at 4 g/ha (Myzus persicae; 4 g/ha, alone, after 6 d): 0%

N#CCNC(=O)c1cnccc1C(F)(F)F [flonicamid (89), flonicamid]
Kill in % after 2d (Tetranychus urticae; 100 g/ha): 0%

O=C(NC(=O)c1c(F)cccc1F)Nc1ccc(Oc2ccc(C(F)(F)F)cc2Cl)cc1F [flufenoxuron (38), flufenoxuron]
pest or weed control at 20 g/ha (Tetranychus urticae; [1]): 0% | pest or weed control at 4 g/ha (Phaedon cochleariae): 0%

O=[N+]([O-])/N=C1\NCCN1Cc1ccc(Cl)nc1 [imidacloprid (24), imidacloprid]
pest or weed control at 0.8 g/ha (Tetranychus urticae; [4]): 0% | pest or weed control at 0.032 g/ha (Myzus persicae; alone, after 6 d): 0%

COC(=O)N(C(=O)N1COC2(C(=O)OC)Cc3cc(Cl)ccc3C2=N1)c1ccc(OC(F)(F)F)cc1 (stereo not shown) [indoxacarb (94), indoxacarb]
pest or weed control at 100 g/ha (Tetranychus urticae; [5]): 0% | pest or weed control at 4 g/ha (Spodoptera frugiperda; [2]): 0% | pest or weed control at 4 g/ha (Myzus persicae; 4 g/ha, alone, after 6 d): 0%

O=C(NC(=O)c1c(F)cccc1F)Nc1cc(Cl)c(OC(F)(F)C(F)C(F)(F)F)cc1Cl (stereo not shown) [lufenuron (34), lufenuron]
pest or weed control at 20 g/ha (Tetranychus urticae; [1]): 0% | Kill in % after 2d (Spodoptera frugiperda; 100 g/ha, alone, after 2 d): 0% | pest or weed control at 0.8 g/ha (Myzus persicae; 0.8 g/ha, alone, after 6 d): 0%

CNC(=O)Oc1cc(C)c(SC)c(C)c1 [methiocarb (110), methiocarb]
pest or weed control at 4 g/ha (Phaedon cochleariae): 0%

COc1cccc(C(=O)NN(C(=O)c2cc(C)cc(C)c2)C(C)(C)C)c1C [methoxyfenozide (44), methoxyfenozide]
pest or weed control at 20 g/ha (Tetranychus urticae; [1]): 0% | pest or weed control at 0.8 g/ha (Myzus persicae; 0.8 g/ha, alone, after 6 d): 0%

O=C(NC(=O)c1c(F)cccc1F)Nc1ccc(OC(F)(F)C(F)OC(F)(F)F)c(Cl)c1 (stereo not shown) [novaluron (37), novaluron]
pest or weed control at 4 g/ha (Phaedon cochleariae): 83%

CC1=NNC(=O)N(/N=C/c2cccnc2)C1 [pymetrozine (88), pymetrozine]
pest or weed control at 20 g/ha (Tetranychus urticae; [1]): 0% | Kill in % after 1d (Myzus persicae; 20 g/ha, alone): 20% | pest or weed control at 100 g/ha (Phaedon cochleariae): 0%

FC(F)(F)c1ccc(OCCCOc2c(Cl)cc(OCC=C(Cl)Cl)cc2Cl)nc1 [pyridalyl (99)]
Kill in % after 6d (Tetranychus urticae; [1]): 0%

CC(COc1ccc(Oc2ccccc2)cc1)Oc1ccccn1 (stereo not shown) [pyriproxifen (90), pyriproxyfen]
pest or weed control at 20 g/ha (Tetranychus urticae; [1]): 0% | pest or weed control at 0.8 g/ha (Myzus persicae; 0.8 g/ha, alone, after 6 d): 0% | pest or weed control at 100 g/ha (Phaedon cochleariae): 0%

CCC(C)(C)C(=O)OC1=C(c2ccc(Cl)cc2Cl)C(=O)OC12CCCCC2 [spirodiclofen (96), spirodiclofen]
pest or weed control at 0.8 g/ha (Myzus persicae; 0.8 g/ha, alone, after 6 d): 0% | pest or weed control at 100 g/ha (Phaedon cochleariae): 0%

Cc1cc(C)c(C2=C(OC(=O)CC(C)(C)C)C3(CCCC3)OC2=O)c(C)c1 [spiromesifen (97), spiromesifen]
pest or weed control at 0.8 g/ha (Myzus persicae; 0.8 g/ha, alone, after 6 d): 0%

CCc1nn(C)c(C(=O)NCc2ccc(C(C)(C)C)cc2)c1Cl [tebufenpyrad (64), tebufenpyrad]
pest or weed control at 0.8 g/ha (Myzus persicae; 0.8 g/ha, alone, after 6 d): 0%

N#C/N=C1\SCCN1Cc1ccc(Cl)nc1 [thiacloprid (28), thiacloprid]
pest or weed control at 0.8 g/ha (Tetranychus urticae; [4]): 0% | pest or weed control at 0.032 g/ha (Myzus persicae; alone, after 6 d): 0% | Kill in % after 2d (Phaedon cochleariae; 4 g/ha): 0%

CN1COCN(Cc2cnc(Cl)s2)/C1=N/[N+](=O)[O-] [thiamethoxam (26), thiamethoxam]
pest or weed control at 0.032 g/ha (Myzus persicae; alone, after 6 d): 0%

abamectin [abamectin (60)]
Kill in % after 1d (Myzus persicae; 20 g/ha, alone): 5%

carbosulfan [carbosulfan (109)]
Kill in % after 1d (Myzus persicae; 4 g/ha, alone): 0%

chlorpyrifos [chlorpyrifos (95)]
Kill in % after 6d (Tetranychus urticae; [1]): 0% | Kill in % after 6d (Myzus persicae; 0.8 g/ha, alone, after 6 d): 0%

profenofos [profenofos (114)]
Kill in % after 6d (Tetranychus urticae; [1]): 0% | Kill in % after 1d (Myzus persicae; 0.8 g/ha, alone): 0%

pyridaben [pyridaben (66)]
Kill in % after 6d (Myzus persicae; 0.8 g/ha, alone, after 6 d): 0% | Kill in % after 2d (Phaedon cochleariae; 20 g/ha): 33%
